The experiment relates to L1210 leukemia ip in BDF1 mice, survival T/C. In words: NCI In Vivo Anticancer Drug Screen. Data for tumor model L1210 Leukemia (intraperitoneal) in B6D2F1 (BDF1) mice. The following applies: endpoint: mean survival time, higher = longer survival. Summed up:
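Ratio derived from survival: compound-dosed mice over vehicle-dosed mice, all bearing a transplantable tumor.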

The mark [1] stands for this setting: dose: 100.0 mg/kg/injection, schedule: Q01DX009 (ip), vehicle: saline with Tween-80.
[2] abbreviates: dose: 200.0 mg/kg/injection, schedule: Q01DX009 (ip), vehicle: saline with Tween-80.
[3] abbreviates: dose: 100.0 mg/kg/injection, schedule: Q01DX001 (ip), vehicle: carboxymethylcellulose (CMC).
Setting [4] is: dose: 50.0 mg/kg/injection, schedule: Q01DX009 (ip), vehicle: saline.
[5] abbreviates: dose: 100.0 mg/kg/injection, schedule: Q01DX009 (ip), vehicle: saline.
Setting [6] is: dose: 100.0 mg/kg/injection, schedule: Q04DX003 (ip), vehicle: saline.
Where [7] appears, read: dose: 200.0 mg/kg/injection, schedule: Q01DX009 (ip), vehicle: saline.
Where [8] appears, read: dose: 200.0 mg/kg/injection, schedule: Q04DX003 (ip), vehicle: saline.
The mark [9] stands for this setting: dose: 100.0 mg/kg/injection, schedule: Q04DX003 (ip), vehicle: Klucel (hydroxypropylcellulose) (HPC).
[10] abbreviates: dose: 200.0 mg/kg/injection, schedule: Q04DX003 (ip), vehicle: Klucel (hydroxypropylcellulose) (HPC).
Setting [11] is: dose: 400.0 mg/kg/injection, schedule: Q04DX003 (ip), vehicle: Klucel (hydroxypropylcellulose) (HPC).
Where [12] appears, read: dose: 50.0 mg/kg/injection, schedule: Q01DX001 (ip), vehicle: carboxymethylcellulose (CMC).
[13] abbreviates: dose: 200.0 mg/kg/injection, schedule: Q01DX001 (ip), vehicle: carboxymethylcellulose (CMC).
Setting [14] is: dose: 400.0 mg/kg/injection, schedule: Q01DX001 (ip), vehicle: carboxymethylcellulose (CMC).
Setting [15] is: dose: 400.0 mg/kg/injection, schedule: Q04DX003 (ip), vehicle: saline.

Several values for one entry are separate records, joined by “and”; a condition that tells them apart may be missing. Equal entries are not always repeated. Inconclusive results and toxic doses are left out.

Turning to `Nc1nnco1`, the T/C runs as follows: (dose: 222.0 mg/kg/injection, schedule: Q01DX Z (ip), vehicle: saline) 97 % of control; (dose: 333.0 mg/kg/injection, schedule: Q01DX Z (ip), vehicle: saline) 108 % of control; (dose: 500.0 mg/kg/injection, schedule: Q01DX Z (ip), vehicle: saline) 97 % of control.
As for `O=C(NC(=S)Nc1cccc(F)c1)c1cccc([N+](=O)[O-])c1`, the T/C is 98 % of control (dose: 100.0 mg/kg/injection, schedule: Q01DX001 (ip), vehicle: saline with Tween-80); 94 % of control and 95 % of control under setting [1]; 101 % of control and 111 % of control (dose: 100.0 mg/kg/injection, schedule: Q04DX002 (ip), vehicle: saline with Tween-80); 98 % of control (dose: 100.0 mg/kg/injection, schedule: Q04DX003 (ip), vehicle: saline with Tween-80); 93 % of control (dose: 200.0 mg/kg/injection, schedule: Q01DX001 (ip), vehicle: saline with Tween-80); 98 % of control and 90 % of control under setting [2]. In addition, the T/C is 92 % of control and 96 % of control (dose: 200.0 mg/kg/injection, schedule: Q04DX002 (ip), vehicle: saline with Tween-80); 102 % of control (dose: 200.0 mg/kg/injection, schedule: Q04DX003 (ip), vehicle: saline with Tween-80); 92 % of control and 94 % of control (dose: 400.0 mg/kg/injection, schedule: Q01DX009 (ip), vehicle: saline with Tween-80); 101 % of control and 103 % of control (dose: 400.0 mg/kg/injection, schedule: Q04DX002 (ip), vehicle: saline with Tween-80); 101 % of control (dose: 400.0 mg/kg/injection, schedule: Q04DX003 (ip), vehicle: saline with Tween-80).
As to `CCSC1C(O)C(C(O)CO)OC1n1ccc(=O)[nH]c1=O` (stereo unspecified), the T/C runs as follows: (dose: 100.0 mg/kg/injection, schedule: Q01DX005 (ip), vehicle: saline) 96 % of control; (dose: 200.0 mg/kg/injection, schedule: Q01DX005 (ip), vehicle: saline) 98 % of control.
In the case of `CN(C)/C=C1\CCOC1=O`, the T/C by setting is: (dose: 100.0 mg/kg/injection, schedule: Q04DX002 (ip), vehicle: saline) 101 % of control; (dose: 200.0 mg/kg/injection, schedule: Q04DX002 (ip), vehicle: saline) 119 % of control.
Take `COc1ccccc1NC(=O)N(CCCl)N=O`: the T/C was 110 % of control (dose: 0.8 mg/kg/injection, schedule: Q01DX001 (ip), vehicle: carboxymethylcellulose (CMC)); 106 % of control (dose: 1.5 mg/kg/injection, schedule: Q01DX001 (ip), vehicle: carboxymethylcellulose (CMC)); 97 % of control (dose: 1.5 mg/kg/injection, schedule: Q01DX009 (ip), vehicle: carboxymethylcellulose (CMC)); 108 % of control (dose: 3.0 mg/kg/injection, schedule: Q01DX001 (ip), vehicle: carboxymethylcellulose (CMC)); 118 % of control and 124 % of control (dose: 3.5 mg/kg/injection, schedule: Q01DX009 (ip), vehicle: carboxymethylcellulose (CMC)); 165 % of control (dose: 5.3 mg/kg/injection, schedule: Q01DX009 (ip), vehicle: carboxymethylcellulose (CMC)). Moreover, the T/C was 117 % of control (dose: 6.0 mg/kg/injection, schedule: Q01DX001 (ip), vehicle: carboxymethylcellulose (CMC)); 166 % of control and 236 % of control (dose: 8.0 mg/kg/injection, schedule: Q01DX009 (ip), vehicle: carboxymethylcellulose (CMC)); 214 % of control and 247 % of control (dose: 12.0 mg/kg/injection, schedule: Q01DX009 (ip), vehicle: carboxymethylcellulose (CMC)); 116 % of control and 123 % of control (dose: 18.0 mg/kg/injection, schedule: Q01DX009 (ip), vehicle: carboxymethylcellulose (CMC)); 100 % of control under setting [3].
In the case of `Cc1cc(C)c2c(=O)[nH][nH]c2n1`, the T/C reads like this: (dose: 50.0 mg/kg/injection, schedule: Q01DX009 (ip), vehicle: saline with Tween-80) 105 % of control; under setting [1], 100 % of control; under setting [2], 91 % of control.
On to `NNc1nncn1N`, for which the T/C runs as follows: under setting [4], 101 % of control; under setting [5], 102 % of control; under setting [6], 97 % of control; under setting [7], 103 % of control; under setting [8], 94 % of control.
Turning to `O=[N+]([O-])c1cc(Br)cc2c1nc(Cl)c1ccccc12`, the T/C was 98 % of control under setting [9], 101 % of control under setting [10] and 98 % of control under setting [11].
Consider `CCCCNN`, for which the T/C (dose: 75.0 mg/kg/injection, schedule: Q01DX001 (ip), vehicle: other) is 96 % of control and the T/C (dose: 150.0 mg/kg/injection, schedule: Q01DX001 (ip), vehicle: other) is 113 % of control.
For the compound `Cn1c[n+](C2OC(CO)C(O)C2O)c2nc(N)[nH]c(=O)c21` (stereo unspecified), the T/C is 92 % of control under setting [12], 92 % of control under setting [3], 97 % of control under setting [13] and 93 % of control under setting [14].
In the case of `C=CCN(CC=C)/N=N/c1nc[nH]c1C(N)=O`, the T/C was 104 % of control (dose: 37.5 mg/kg/injection, schedule: Q01DX009 (ip), vehicle: saline with Tween-80); 100 % of control (dose: 75.0 mg/kg/injection, schedule: Q01DX009 (ip), vehicle: saline with Tween-80); 98 % of control (dose: 150.0 mg/kg/injection, schedule: Q01DX009 (ip), vehicle: saline with Tween-80).
With `CC1(C)NC(=O)N(CN2CCN(CN3C(=O)NC(C)(C)C3=O)CC2)C1=O`, the T/C reads like this: under setting [6], 108 % of control; under setting [8], 108 % of control; under setting [15], 113 % of control.
Take `CC(C)c1ccc(N2C(=O)C=CC2=O)cc1`: the T/C is, setting by setting: (dose: 12.5 mg/kg/injection, schedule: Q01DX009 (ip), vehicle: Klucel (hydroxypropylcellulose) (HPC)) 100 % of control; (dose: 25.0 mg/kg/injection, schedule: Q01DX009 (ip), vehicle: Klucel (hydroxypropylcellulose) (HPC)) 91 % of control.
`O=CNC(CSC(c1ccccc1)c1ccccc1)C(=O)O` (stereo unspecified): the T/C reads like this: (dose: 40.0 mg/kg/injection, schedule: Q01DX009 (ip), vehicle: Klucel (hydroxypropylcellulose) (HPC)) 108 % of control; (dose: 75.0 mg/kg/injection, schedule: Q01DX001 (ip), vehicle: Klucel (hydroxypropylcellulose) (HPC)) 86 % of control; (dose: 75.0 mg/kg/injection, schedule: Q01DX009 (ip), vehicle: Klucel (hydroxypropylcellulose) (HPC)) 105 % of control; (dose: 150.0 mg/kg/injection, schedule: Q01DX001 (ip), vehicle: Klucel (hydroxypropylcellulose) (HPC)) 93 % of control; (dose: 150.0 mg/kg/injection, schedule: Q01DX009 (ip), vehicle: Klucel (hydroxypropylcellulose) (HPC)) 103 % of control.
With `COc1ccc(/C=C/C(=O)c2ccc3c(c2)OCO3)cc1O`, the T/C under setting [4] is 100 % of control; the T/C under setting [5] was 93 % of control; the T/C under setting [6] was 93 % of control; the T/C under setting [7] was 100 % of control; the T/C under setting [8] was 97 % of control; the T/C (dose: 300.0 mg/kg/injection, schedule: Q01DX009 (ip), vehicle: saline) is 120 % of control. Under setting [15], the T/C is 87 % of control.
Take `O=C(N/N=C/c1ccc(Cl)cc1)C(c1ccccc1)N1CCCCC1` (stereo unspecified): the T/C is, setting by setting: (dose: 100.0 mg/kg/injection, schedule: Q01DX001 (ip), vehicle: other) 96 % of control; (dose: 200.0 mg/kg/injection, schedule: Q01DX001 (ip), vehicle: other) 87 % of control; (dose: 400.0 mg/kg/injection, schedule: Q01DX001 (ip), vehicle: other) 93 % of control.
Take `Nc1cc2ccncc2c2ccccc12`: the T/C is 98 % of control (dose: 50.0 mg/kg/injection, schedule: Q01DX009 (ip), vehicle: saline sonified); 104 % of control (dose: 100.0 mg/kg/injection, schedule: Q01DX009 (ip), vehicle: saline sonified); 97 % of control under setting [9]; 106 % of control (dose: 200.0 mg/kg/injection, schedule: Q01DX009 (ip), vehicle: saline sonified); 108 % of control under setting [10].
`Cc1cc(N(CCCl)CCCl)ccc1CN1CCCN(Cc2ccc(N(CCCl)CCCl)cc2C)C1c1ccccc1O`: the T/C under setting [12] is 106 % of control; the T/C under setting [3] was 103 % of control; the T/C under setting [9] is 117 % of control; the T/C under setting [13] was 103 % of control; the T/C under setting [10] was 110 % of control; the T/C under setting [14] is 103 % of control. The T/C under setting [11] was 122 % of control.

For the origin of these results see PubChem BioAssay AID248 (DTP/NCI, 2004).
